“Also recorded” adds a separate entry of the source. Read-outs that look alike come from different tables or passages of the source. Non-standard residues stand in square brackets, D forms with d. Residues, ends and D or L forms follow the SMILES beside them. *: point of attachment. Biotinyl(3aR,4R,6aS) = O=C1N[C@@H]2[C@@H](CS[C@@H]2CCCCC(=O)*)N1; X2 = C[C@H]1NC(=O)N[C@H]1CCCCCC(=O)*; NH(4-Me-benzyl) = Cc1ccc(CN*)cc1; NMeF = CN[C@@H](Cc1ccccc1)C(=O)O; Cit = NC(=O)NCCC[C@H](N)C(=O)O; Pip = O=C(O)[C@@H]1CCCCN1; Fluoroacetyl = O=C(CF)*; X3 = C=CS(=O)(=O)*; ClAc = O=C(CCl)*
Columns and labels:
Pin1 (GST-Pin1) = Pin1 (GST-Pin1) (Homo sapiens, UniProt Q13526); experiment: Fluorescence polarization (FP) assay, binding to Pin1
Chain of Pin1 (GST-Pin1) (Q13526 whole entry): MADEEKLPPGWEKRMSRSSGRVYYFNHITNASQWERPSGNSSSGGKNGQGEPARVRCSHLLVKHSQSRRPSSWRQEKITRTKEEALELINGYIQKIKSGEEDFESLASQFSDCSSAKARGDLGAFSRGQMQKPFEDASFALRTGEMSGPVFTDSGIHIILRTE

Pin1 = Pin1 (Homo sapiens, UniProt Q13526); experiment: Lysate target engagement (pull down with biotinylated probes; competition assay); type: binding; design: endogenous in cells; host or cells: MDA-MB-231; conditions: for Lysate Target Engagement?: TNBC-MDA-MB-231 lysate, biotin/dtb probes: pull down, others: competition, concentration under E5; for Lysate Target Engagement? concentration stated for the engagement or pull down: read with the E4 line of the same compound (complete, partial, probe pull down); for pull down of Pin1 from lysate (FIG. 5A): 1 μM
Chain of Pin1 (Q13526 whole entry): as above
Procedure: (§1) TNBC-MDA-MB-231 cells were lysed in lysis buffer (50 mM Hepes pH 7.5, 150 mM NaCl, 1 mM ethylenediaminetetraacetic acid (EDTA), 10% v/v glycerol, 0.5% v/v NP-40, protease inhibitors (Roche)). After clarifying by centrifugation (14,000 rpm for 15 min at 4° C.), lysates were incubated with the indicated concentrations of candidate compound for 1 hour at 4° C. (500 μg of protein per sample, as determined by BCA). Lysates were then incubated with streptavidin agarose resin (30 μL of 1:1 beads: lysis buffer slurry) (Thermo Scientific™, cat. #20349) for 2 hours at 4° C. Beads were washed 4 times with 500 μL of washing buffer (50 mM Hepes, pH 7.5, 10 mM NaCl, 1 mM EDTA, 10% glycerol), then pelleted by centrifugation and dried. The beads were then boiled at 95° C. for 5 minutes in 30 μL of 2× LDS+10% β-mercaptoethanol. Lysates were probed for specified proteins by western blotting using the Bolt system (Life Technologies™).
as §1, with “mM EDTA,” for “mM ethylenediaminetetraacetic acid (EDTA),”, “by centrifugation,” for “by centrifugation (14,000 rpm for 15 min at 4° C.),”, “were pre-incubated” for “were incubated”, “of” for “of candidate”, “compound 18 overnight” for “compound for 1 hour”, “BCA). The lysates were then incubated with 1 μM of compound 2c (desthiobiotin probe) for 1 hour at 4° C.” for “BCA).”

[1] = competition with fluorescein-labeled peptide probe, 12 hours pre-incubation at 4° C., Kenakin Ki equation, read-out: Ki, μM (FP Assay)
[2] = Ki quoted in figure legend, assay not named
[3] = Ki, μM (FP Assay), competition with fluorescein-labeled peptide probe, 12 hours pre-incubation at 4° C., Kenakin Ki equation

SMILES: COC(=O)CC[C@H](NC(=O)CCl)C(=O)N1CCCC[C@H]1C(=O)N[C@@H](Cc1c[nH]c2ccccc12)C(=O)N[C@@H](Cc1ccc(O)cc1)C(N)=O [Compound 2-22, Methyl (S)-5-((S)-2-(((S)-1-(((S)-1-Amino-3-(4-hydroxyphenyl)-1-oxopropan-2-yl)amino)-3-(1H-indol-3-yl)-1-oxopropan-2-yl)carbamoyl)piperidin-1-yl)-4-(2-chloroacetamido)-5-oxopentanoate] (ClAc-E(OMe)[Pip]WY-NH2)
- Ki (Pin1 (GST-Pin1); [1]): 0.154 µM
- Lysate Target Engagement? (Pin1): Yes-partial
- Lysate Target Engagement? concentration stated for the engagement or pull down (Pin1): at 10 μM

SMILES: C[C@H](NC(=O)[C@H](C)NC(=O)[C@H](CCCNC(N)=O)NC(=O)[C@H](Cc1c[nH]c2ccccc12)NC(=O)[C@@H]1CCCCN1C(=O)[C@H](CCC(=O)O)NC(=O)CCl)C(=O)N[C@@H](CCCCNC(=O)CCCC[C@H]1SC[C@H]2NC(=O)N[C@H]21)C(N)=O [Compound 2-25, (S)-5-((S)-2-(((2S,5S,8S,11S)-14-Carbamoyl-1-(1H-indol-3-yl)-8,11-dimethyl-3,6,9,12,20-pentaoxo-24-((3aR,4R,6aS)-2-oxohexahydro-1H-thieno[3,4-d]imidazol-4-yl)-5-(3-ureidopropyl)-4,7,10,13,19-pentaazatetracosan-2-yl)carbamoyl)piperidin-1-yl)-4-(2-chloroacetamido)-5-oxopentanoic acid] (ClAc-E[Pip]W[Cit]AAK(Biotinyl(3aR,4R,6aS))-NH2)
- Ki (Pin1 (GST-Pin1); read-out: Ki quoted in figure legend, assay not named): 0.02 µM
- pull down of Pin1 from lysate (FIG. 5A) (Pin1; TNBC MDA-MB-231 lysate): able to pull down Pin1; also recorded: pulled down Pin1
- Lysate Target Engagement? (Pin1): Yes-(Biotin
- Lysate Target Engagement? concentration stated for the engagement or pull down (Pin1): at 1 μM

SMILES: C[C@H](NC(=O)[C@H](C)NC(=O)[C@H](CCCNC(N)=O)NC(=O)[C@H](Cc1c[nH]c2ccccc12)NC(=O)[C@@H]1CCCCN1C(=O)[C@@H](CCC(=O)O)NC(=O)CCl)C(=O)N[C@@H](CCCCNC(=O)CCCC[C@H]1SC[C@H]2NC(=O)N[C@H]21)C(N)=O [Compound 2-30, (R)-5-((S)-2-(((2S,5S,8S,11S)-14-Carbamoyl-1-(1H-indol-3-yl)-8,11-dimethyl-3,6,9,12,20-pentaoxo-24-((3aR,4R,6aS)-2-oxohexahydro-1H-thieno[3,4-d]imidazol-4-yl)-5-(3-ureidopropyl)-4,7,10,13,19-pentaazatetracosan-2-yl)carbamoyl)piperidin-1-yl)-4-(2-chloroacetamido)-5-oxopentanoic acid] (ClAc-[dE][Pip]W[Cit]AAK(Biotinyl(3aR,4R,6aS))-NH2)
- Ki (Pin1 (GST-Pin1); [1]): 1.6 µM
- pull down of Pin1 from lysate (FIG. 5A) (Pin1; TNBC MDA-MB-231 lysate): unable to pull down Pin1; also recorded: did not

SMILES: CN(C(=O)CCl)[C@@H](Cc1ccccc1)C(=O)N1CCCC[C@H]1C(=O)N[C@@H](Cc1c[nH]c2ccccc12)C(=O)N[C@@H](CCCNC(N)=O)C(=O)N[C@@H](CCCCNC(=O)CCCC[C@H]1SC[C@H]2NC(=O)N[C@H]21)C(N)=O [Compound 2-32, (S)—N—((S)-1-(((S)-1-(((S)-1-Amino-1-oxo-6-(5-((3aR,4R,6aS)-2-oxohexahydro-1H-thieno[3,4-d]imidazol-4-yl)pentanamido)hexan-2-yl)amino)-1-oxo-5-ureidopentan-2-yl)amino)-3-(1H-indol-3-yl)-1-oxopropan-2-yl)-1-(N-(2-chloroacetyl)-N-methyl-L-phenylalanyl)piperidine-2-carboxamide] (ClAc-[NMeF][Pip]W[Cit]K(Biotinyl(3aR,4R,6aS))-NH2)
- Ki (Pin1 (GST-Pin1); [2]): 0.018 µM
- Ki (Pin1 (GST-Pin1); [3]): 0.018 µM
- pull down of Pin1 from lysate (FIG. 5B) (Pin1; TNBC MDA-MB-231 lysate, 500 nM and 1 μM): able to pull down Pin1; also recorded: pulled down Pin1
- Lysate Target Engagement? (Pin1): Yes-(Biotin
- Lysate Target Engagement? concentration stated for the engagement or pull down (Pin1): at 0.5 μM

SMILES: C[C@H]1NC(=O)N[C@H]1CCCCCC(=O)NCCCC[C@H](NC(=O)[C@H](CCCNC(N)=O)NC(=O)[C@H](Cc1c[nH]c2ccccc12)NC(=O)[C@@H]1CCCCN1C(=O)[C@H](Cc1ccccc1)N(C)C(=O)CCl)C(N)=O [Compound 2c, (S)—N—((S)-1-(((S)-1-(((S)-1-Amino-6-(6-((4S,5R)-5-methyl-2-oxoimidazolidin-4-yl)hexanamido)-1-oxohexan-2-yl)amino)-1-oxo-5-ureidopentan-2-yl)amino)-3-(1H-indol-3-yl)-1-oxopropan-2-yl)-1-(N-(2-chloroacetyl)-N-methyl-L-phenylalanyl)-piperidine-2-carboxamide] (ClAc-[NMeF][Pip]W[Cit]K(X2)-NH2)
- Ki (Pin1 (GST-Pin1); [2]): 0.015 µM
- Lysate Target Engagement? (Pin1): Yes-(dtb
- Lysate Target Engagement? concentration stated for the engagement or pull down (Pin1): at 0.5 μM

SMILES: C=CS(=O)(=O)N[C@@H](Cc1ccccc1)C(=O)N1CCCC[C@H]1C(=O)N[C@@H](Cc1c[nH]c2ccccc12)C(=O)N[C@@H](CCCNC(N)=O)C(=O)NCc1ccc(C)cc1 [Compound 14, (S)—N—((S)-3-(1H-indol-3-yl)-1-(((S)-1-((4-methylbenzyl)amino)-1-oxo-5-ureidopentan-2-yl)amino)-1-oxopropan-2-yl)-1-((vinylsulfonyl)-L-phenylalanyl)piperidine-2-carboxamide] (X3-F[Pip]W[Cit]-{NH(4-Me-benzyl)})
- Ki (Pin1 (GST-Pin1); [1]): 0.143 µM

SMILES: Cc1ccc(CNC(=O)[C@H](CCCNC(N)=O)NC(=O)[C@H](Cc2c[nH]c3ccccc23)NC(=O)[C@@H]2CCCCN2C(=O)[C@H](Cc2ccccc2)NC(=O)CF)cc1 [Compound 15, (S)—N—((S)-3-(1H-Indol-3-yl)-1-(((S)-1-((4-methylbenzyl)amino)-1-oxo-5-ureidopentan-2-yl)amino)-1-oxopropan-2-yl)-1-((2-fluoroacetyl)-L-phenylalanyl)piperidine-2-carboxamide] (Fluoroacetyl-F[Pip]W[Cit]-{NH(4-Me-benzyl)})
- Ki (Pin1 (GST-Pin1); [3]): > 10 µM

— patent US20210238225A1, “PEPTIDOMIMETIC INHIBITORS OF THE PEPTIDYL-PROLYL CIS/TRANS ISOMERASE (PIN1)” (DANA-FARBER CANCER INSTITUTE, INC., priority 2018, published 2021)
